Laboratory results reported in ChEMBL document CHEMBL3862033 (J Med Chem, 2016).

Legend:
[1] = target: T1, 5-hydroxytryptamine receptor 2A (Homo sapiens, UniProt P28223); assay: Displacement of [3H]ketanserin from human 5-HT2A receptor expressed in HEK-T cell membranes incubated for 90 mins under dark condition by microbeta scintillation counting method
[2] = target: T2, Adenosine receptor A3 (Mus musculus) (UniProt Q61618); assay: Agonist activity at recombinant mouse A3AR expressed in HEK293 cells assessed as inhibition of forskolin-stimulated cAMP accumulation at 10 uM after 15 mins relative to adenosine-5'-N-ethyluronamide; assay type: functional, cell-based
T2 sequence (whole entry): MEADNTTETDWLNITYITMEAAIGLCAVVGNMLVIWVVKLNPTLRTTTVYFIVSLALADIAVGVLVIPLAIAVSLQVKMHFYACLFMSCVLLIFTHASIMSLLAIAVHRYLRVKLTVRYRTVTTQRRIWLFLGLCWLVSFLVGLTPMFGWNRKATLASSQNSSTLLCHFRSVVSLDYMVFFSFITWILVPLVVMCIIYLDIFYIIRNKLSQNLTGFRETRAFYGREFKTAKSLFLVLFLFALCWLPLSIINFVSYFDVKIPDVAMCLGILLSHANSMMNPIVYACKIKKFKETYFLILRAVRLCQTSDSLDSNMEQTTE

[3] = target: T3, 5-hydroxytryptamine receptor 1A (Homo sapiens) (UniProt P08908); assay: Displacement of [3H]WAY100635 from human 5-HT1AR expressed in CHO cell membranes at 10 uM incubated for 90 mins under dark condition by microbeta scintillation counting method relative to control
T3 sequence (whole entry): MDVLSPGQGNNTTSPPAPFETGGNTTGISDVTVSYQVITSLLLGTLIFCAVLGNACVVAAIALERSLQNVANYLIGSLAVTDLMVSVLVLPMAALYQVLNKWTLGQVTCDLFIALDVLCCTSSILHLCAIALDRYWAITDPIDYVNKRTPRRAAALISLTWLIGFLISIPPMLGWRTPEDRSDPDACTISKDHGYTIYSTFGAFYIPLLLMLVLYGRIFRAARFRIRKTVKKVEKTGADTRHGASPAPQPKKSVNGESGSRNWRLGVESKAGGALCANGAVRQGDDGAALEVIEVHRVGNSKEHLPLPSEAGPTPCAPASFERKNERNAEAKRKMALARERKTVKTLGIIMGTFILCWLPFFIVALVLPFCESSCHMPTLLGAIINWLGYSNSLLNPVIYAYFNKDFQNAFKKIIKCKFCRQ

[4] = target: 5-hydroxytryptamine receptor 1B (Homo sapiens) (UniProt P28222); assay: Displacement of [3H]5-CT from human 5-HT1BR expressed in HEK cell membranes at 10 uM incubated for 90 mins under dark condition by microbeta scintillation counting method relative to control; details: HEK293
[5] = target: 5-hydroxytryptamine receptor 7 (Homo sapiens) (UniProt P34969); assay: Displacement of [3H]LSD from human 5-HT7A receptor expressed in HEK cell membranes at 10 uM incubated for 90 mins under dark condition by microbeta scintillation counting method relative to control; details: HEK293
[6] = target: 5-hydroxytryptamine receptor 5A (Homo sapiens) (UniProt P47898); assay: Displacement of [3H]LSD from human 5-HT5A receptor expressed in Flp-In-CHO cell membranes incubated for 90 mins under dark condition by microbeta scintillation counting method relative to control; parameters: concentration or dose not given beside the values
[7] = target: 5-hydroxytryptamine receptor 1D (Homo sapiens) (UniProt P28221); assay: Displacement of [3H]5-CT from human 5-HT1D receptor expressed in HEK-T cell membranes at 10 uM incubated for 90 mins under dark condition by microbeta scintillation counting method relative to control
[8] = target: T4, 5-hydroxytryptamine receptor 3A (Homo sapiens) (UniProt P46098); assay: Displacement of [3H]GR65630 from human 5-HT3 receptor expressed in HEK-T cell membranes at 10 uM incubated for 90 mins under dark condition by microbeta scintillation counting method relative to control
T4 sequence (whole entry): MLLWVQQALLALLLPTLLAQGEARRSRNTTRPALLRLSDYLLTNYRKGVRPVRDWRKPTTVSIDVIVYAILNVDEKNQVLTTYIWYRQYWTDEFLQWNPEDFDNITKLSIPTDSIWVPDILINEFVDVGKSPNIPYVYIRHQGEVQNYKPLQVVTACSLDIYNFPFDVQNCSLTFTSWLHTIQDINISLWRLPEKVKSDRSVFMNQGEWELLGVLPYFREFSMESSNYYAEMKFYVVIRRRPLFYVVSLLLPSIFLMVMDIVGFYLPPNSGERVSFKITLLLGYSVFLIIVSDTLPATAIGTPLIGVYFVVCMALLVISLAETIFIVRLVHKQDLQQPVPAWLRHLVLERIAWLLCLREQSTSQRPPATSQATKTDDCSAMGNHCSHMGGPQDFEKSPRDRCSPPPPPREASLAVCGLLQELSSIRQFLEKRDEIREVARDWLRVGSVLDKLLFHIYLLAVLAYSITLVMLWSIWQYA

[9] = target: 5-hydroxytryptamine receptor 1E (Homo sapiens) (UniProt P28566); assay: Displacement of [3H]5-HT from human 5-HT1E receptor expressed in HEK cell membranes at 10 uM incubated for 90 mins under dark condition by microbeta scintillation counting method relative to control; details: HEK293
[10] = target: 5-hydroxytryptamine receptor 6 (Homo sapiens) (UniProt P50406); assay: Displacement of [3H]LSD from human 5-HT6 receptor expressed in HEK cell membranes at 10 uM incubated for 90 mins under dark condition by microbeta scintillation counting method relative to control; details: HEK293
[11] = target: 5-hydroxytryptamine receptor 4 (Homo sapiens) (UniProt Q13639); assay: Displacement of [3H]GR113808 from human 5-HT4 receptor at 10 uM incubated for 90 mins under dark condition by microbeta scintillation counting method relative to control
[12] = target: T5, 5-hydroxytryptamine receptor 2C (Homo sapiens, UniProt P28335); assay: Displacement of [3H]mesulergine from human 5-HT2CR expressed in Flp-In HEK cell membranes incubated for 90 mins under dark condition by microbeta scintillation counting method; parameters: species or system HEK293
T5 sequence (P28335 whole entry): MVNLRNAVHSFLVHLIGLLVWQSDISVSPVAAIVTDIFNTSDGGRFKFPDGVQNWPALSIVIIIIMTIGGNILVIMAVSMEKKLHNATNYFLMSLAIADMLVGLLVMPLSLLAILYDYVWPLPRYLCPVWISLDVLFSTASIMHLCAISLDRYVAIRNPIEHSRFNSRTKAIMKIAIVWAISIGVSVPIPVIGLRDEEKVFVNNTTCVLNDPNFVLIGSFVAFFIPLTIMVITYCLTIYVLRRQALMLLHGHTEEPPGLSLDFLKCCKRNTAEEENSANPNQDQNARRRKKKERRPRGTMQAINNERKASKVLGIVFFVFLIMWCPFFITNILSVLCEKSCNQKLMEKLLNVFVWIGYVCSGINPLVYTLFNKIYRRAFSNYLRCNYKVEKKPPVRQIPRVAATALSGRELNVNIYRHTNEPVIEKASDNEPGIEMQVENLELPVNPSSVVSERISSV

Adenosine receptor A1 = target: T6, Adenosine receptor A1 (Homo sapiens, UniProt P30542); assay: Displacement of [3H]N6-phenylisopropyladenosine from recombinant human A1AR expressed in CHO cell membranes after 60 mins by liquid scintillation counting method
T6 sequence (P30542 whole entry): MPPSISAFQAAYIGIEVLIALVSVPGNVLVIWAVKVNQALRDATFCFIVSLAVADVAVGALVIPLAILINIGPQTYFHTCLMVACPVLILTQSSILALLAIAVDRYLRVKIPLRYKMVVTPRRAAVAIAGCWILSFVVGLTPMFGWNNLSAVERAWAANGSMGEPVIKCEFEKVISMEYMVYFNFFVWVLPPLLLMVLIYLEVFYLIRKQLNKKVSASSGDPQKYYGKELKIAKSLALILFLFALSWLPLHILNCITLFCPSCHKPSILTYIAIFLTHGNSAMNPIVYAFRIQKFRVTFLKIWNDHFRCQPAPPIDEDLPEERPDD

Adenosine receptor A3 = target: T7, Adenosine receptor A3 (Homo sapiens, UniProt P0DMS8); assay: Displacement of [125l]N 6-(4-amino-3-iodobenzyl)adenosine-5'-N-methyluronamide from recombinant human A3AR expressed in CHO cell membranes after 60 mins by gamma counting method
T7 sequence (P0DMS8 whole entry): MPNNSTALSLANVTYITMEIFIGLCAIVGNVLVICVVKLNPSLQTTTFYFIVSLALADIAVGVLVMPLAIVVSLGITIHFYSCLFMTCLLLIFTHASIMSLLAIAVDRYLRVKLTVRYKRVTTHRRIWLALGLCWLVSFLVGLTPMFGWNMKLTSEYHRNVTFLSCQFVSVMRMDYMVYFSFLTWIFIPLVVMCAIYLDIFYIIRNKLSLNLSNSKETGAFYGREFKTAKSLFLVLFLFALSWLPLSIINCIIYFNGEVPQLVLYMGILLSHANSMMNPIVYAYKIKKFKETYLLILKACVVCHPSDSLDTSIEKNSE

[13] = target: T8, 5-hydroxytryptamine receptor 2C (Homo sapiens) (UniProt P28335); assay: Displacement of [3H]mesulergine from human 5-HT2CR expressed in Flp-In HEK cell membranes at 10 uM incubated for 90 mins under dark condition by microbeta scintillation counting method relative to control; details: HEK293
T8 sequence (whole entry): T5 sequence (P28335 whole entry)

[14] = target: T1, 5-hydroxytryptamine receptor 2A; assay: Displacement of [3H]ketanserin from human 5-HT2A receptor expressed in HEK-T cell membranes at 10 uM incubated for 90 mins under dark condition by microbeta scintillation counting method relative to control
Adenosine receptor A2a = Adenosine receptor A2a (Homo sapiens, UniProt P29274); assay: Displacement of [3 H]2-[p-(2-carboxyethyl)phenyl-ethylamino]-5'-N-ethylcarboxamidoadenosine from recombinant human adenosine receptor A2A expressed in HEK293 cell membranes after 60 mins by liquid scintillation counting method
[15] = Displacement of [3H]DTG from sigma2 receptor in rat PC12 cells after 90 mins by microbeta scintillation counting method; assay type: cell-based; details: pc-12
[16] = target: 5-hydroxytryptamine receptor 2B (Homo sapiens, UniProt P41595); details: HEK293, at 10 µM
Chain of 5-hydroxytryptamine receptor 2B (P41595 whole entry): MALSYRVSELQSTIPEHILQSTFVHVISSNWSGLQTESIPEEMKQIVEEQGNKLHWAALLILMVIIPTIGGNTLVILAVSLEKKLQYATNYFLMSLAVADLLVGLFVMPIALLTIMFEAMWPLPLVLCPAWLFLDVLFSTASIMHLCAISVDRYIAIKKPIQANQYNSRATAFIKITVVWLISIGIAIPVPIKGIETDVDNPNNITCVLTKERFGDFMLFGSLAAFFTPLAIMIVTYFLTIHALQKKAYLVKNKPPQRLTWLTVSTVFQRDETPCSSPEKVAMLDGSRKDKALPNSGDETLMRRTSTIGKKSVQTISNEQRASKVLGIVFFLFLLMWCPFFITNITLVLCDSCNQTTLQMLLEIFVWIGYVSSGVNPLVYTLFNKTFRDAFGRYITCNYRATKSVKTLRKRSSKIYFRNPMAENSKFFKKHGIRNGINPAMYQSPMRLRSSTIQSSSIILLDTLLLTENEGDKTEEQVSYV

Chain of 5-hydroxytryptamine receptor 1D (Homo sapiens) (P28221 whole entry): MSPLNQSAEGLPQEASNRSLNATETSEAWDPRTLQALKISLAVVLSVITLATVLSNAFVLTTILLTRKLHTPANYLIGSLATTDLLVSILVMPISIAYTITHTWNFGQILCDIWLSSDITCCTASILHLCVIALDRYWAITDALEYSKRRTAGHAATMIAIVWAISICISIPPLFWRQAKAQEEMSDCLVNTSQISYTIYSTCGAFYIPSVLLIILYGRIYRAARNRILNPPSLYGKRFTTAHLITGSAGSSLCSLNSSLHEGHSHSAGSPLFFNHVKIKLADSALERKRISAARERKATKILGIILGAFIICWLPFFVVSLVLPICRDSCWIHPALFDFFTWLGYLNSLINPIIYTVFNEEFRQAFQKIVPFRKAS
Chain of 5-hydroxytryptamine receptor 1E (Homo sapiens) (P28566 whole entry): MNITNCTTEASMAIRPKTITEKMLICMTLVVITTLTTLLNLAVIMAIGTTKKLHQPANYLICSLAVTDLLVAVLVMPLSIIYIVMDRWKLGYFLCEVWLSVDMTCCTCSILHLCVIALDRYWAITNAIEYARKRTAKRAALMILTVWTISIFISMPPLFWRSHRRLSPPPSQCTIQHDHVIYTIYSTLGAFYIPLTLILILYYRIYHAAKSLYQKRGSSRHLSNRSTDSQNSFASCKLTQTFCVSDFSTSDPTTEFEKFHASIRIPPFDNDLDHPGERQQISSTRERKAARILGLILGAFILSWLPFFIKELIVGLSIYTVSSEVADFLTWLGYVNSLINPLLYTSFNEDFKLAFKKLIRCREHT
Chain of 5-hydroxytryptamine receptor 5A (Homo sapiens) (P47898 whole entry): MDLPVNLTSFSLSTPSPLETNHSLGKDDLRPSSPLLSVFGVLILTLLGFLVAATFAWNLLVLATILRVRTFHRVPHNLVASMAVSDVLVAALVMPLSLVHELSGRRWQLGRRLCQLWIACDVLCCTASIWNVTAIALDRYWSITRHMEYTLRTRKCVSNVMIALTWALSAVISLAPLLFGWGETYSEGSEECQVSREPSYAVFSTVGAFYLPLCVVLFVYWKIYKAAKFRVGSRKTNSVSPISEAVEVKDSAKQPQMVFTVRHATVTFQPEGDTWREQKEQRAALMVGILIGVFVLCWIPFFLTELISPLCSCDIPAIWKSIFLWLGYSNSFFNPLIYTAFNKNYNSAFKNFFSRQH
Chain of 5-hydroxytryptamine receptor 1B (Homo sapiens) (P28222 whole entry): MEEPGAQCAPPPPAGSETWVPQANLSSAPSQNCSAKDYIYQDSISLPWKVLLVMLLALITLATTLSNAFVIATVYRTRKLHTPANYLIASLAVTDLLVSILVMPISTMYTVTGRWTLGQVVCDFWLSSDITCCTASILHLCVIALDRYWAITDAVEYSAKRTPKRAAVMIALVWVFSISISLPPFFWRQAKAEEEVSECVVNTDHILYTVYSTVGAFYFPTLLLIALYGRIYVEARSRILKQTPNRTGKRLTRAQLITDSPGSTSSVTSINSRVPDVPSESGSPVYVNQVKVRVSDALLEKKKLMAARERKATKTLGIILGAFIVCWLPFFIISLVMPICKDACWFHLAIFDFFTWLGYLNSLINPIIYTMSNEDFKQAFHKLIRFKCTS
T1 sequence (P28223 whole entry): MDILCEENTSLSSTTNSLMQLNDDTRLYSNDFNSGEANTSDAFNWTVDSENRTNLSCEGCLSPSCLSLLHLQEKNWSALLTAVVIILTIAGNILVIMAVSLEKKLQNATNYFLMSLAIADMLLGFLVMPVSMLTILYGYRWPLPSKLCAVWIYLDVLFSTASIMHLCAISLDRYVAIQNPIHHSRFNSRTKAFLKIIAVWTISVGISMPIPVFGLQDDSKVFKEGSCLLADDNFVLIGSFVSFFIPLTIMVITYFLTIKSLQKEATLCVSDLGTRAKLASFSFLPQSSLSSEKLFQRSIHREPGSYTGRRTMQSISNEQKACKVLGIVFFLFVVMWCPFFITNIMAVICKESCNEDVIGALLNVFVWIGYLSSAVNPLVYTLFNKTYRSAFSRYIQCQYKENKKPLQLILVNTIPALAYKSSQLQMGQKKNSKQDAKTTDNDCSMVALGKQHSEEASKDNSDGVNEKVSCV
Chain of 5-hydroxytryptamine receptor 7 (Homo sapiens) (P34969 whole entry): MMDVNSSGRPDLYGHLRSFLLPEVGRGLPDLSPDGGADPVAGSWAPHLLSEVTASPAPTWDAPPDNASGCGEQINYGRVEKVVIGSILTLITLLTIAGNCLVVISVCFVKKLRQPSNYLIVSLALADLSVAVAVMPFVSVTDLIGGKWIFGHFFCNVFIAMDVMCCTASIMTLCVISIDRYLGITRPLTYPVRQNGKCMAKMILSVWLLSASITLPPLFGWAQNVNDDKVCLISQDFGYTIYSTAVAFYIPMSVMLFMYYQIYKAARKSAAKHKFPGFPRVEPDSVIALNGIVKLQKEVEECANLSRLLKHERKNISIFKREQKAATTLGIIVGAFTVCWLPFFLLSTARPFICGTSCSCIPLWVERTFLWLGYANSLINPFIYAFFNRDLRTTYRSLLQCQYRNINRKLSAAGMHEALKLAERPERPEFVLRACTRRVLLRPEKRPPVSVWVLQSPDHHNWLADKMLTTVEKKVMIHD
Chain of 5-hydroxytryptamine receptor 6 (Homo sapiens) (P50406 whole entry): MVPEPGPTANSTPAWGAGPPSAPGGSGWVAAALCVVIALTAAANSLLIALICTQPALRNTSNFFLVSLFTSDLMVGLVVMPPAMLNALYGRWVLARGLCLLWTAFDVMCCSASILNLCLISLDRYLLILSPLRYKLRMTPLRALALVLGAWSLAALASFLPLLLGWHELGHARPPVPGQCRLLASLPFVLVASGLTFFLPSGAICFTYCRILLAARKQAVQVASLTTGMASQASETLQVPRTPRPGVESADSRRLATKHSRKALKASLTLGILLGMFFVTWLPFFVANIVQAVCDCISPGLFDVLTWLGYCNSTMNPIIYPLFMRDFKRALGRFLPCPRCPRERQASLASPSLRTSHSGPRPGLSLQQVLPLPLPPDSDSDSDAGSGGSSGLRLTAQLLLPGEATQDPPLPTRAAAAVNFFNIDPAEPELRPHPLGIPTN
Chain of Adenosine receptor A2a (P29274 whole entry): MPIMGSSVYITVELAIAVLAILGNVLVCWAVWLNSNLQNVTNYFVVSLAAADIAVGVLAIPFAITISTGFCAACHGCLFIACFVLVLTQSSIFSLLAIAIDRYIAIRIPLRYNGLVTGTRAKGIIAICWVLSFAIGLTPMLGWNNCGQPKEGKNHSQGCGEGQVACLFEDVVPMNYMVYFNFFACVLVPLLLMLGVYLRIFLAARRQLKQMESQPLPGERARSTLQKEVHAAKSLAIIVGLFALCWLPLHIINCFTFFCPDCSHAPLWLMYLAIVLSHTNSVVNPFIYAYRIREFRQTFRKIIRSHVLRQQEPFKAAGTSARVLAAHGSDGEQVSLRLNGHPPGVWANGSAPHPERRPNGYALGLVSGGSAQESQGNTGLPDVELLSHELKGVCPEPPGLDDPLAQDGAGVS
Chain of 5-hydroxytryptamine receptor 4 (Homo sapiens) (Q13639 whole entry): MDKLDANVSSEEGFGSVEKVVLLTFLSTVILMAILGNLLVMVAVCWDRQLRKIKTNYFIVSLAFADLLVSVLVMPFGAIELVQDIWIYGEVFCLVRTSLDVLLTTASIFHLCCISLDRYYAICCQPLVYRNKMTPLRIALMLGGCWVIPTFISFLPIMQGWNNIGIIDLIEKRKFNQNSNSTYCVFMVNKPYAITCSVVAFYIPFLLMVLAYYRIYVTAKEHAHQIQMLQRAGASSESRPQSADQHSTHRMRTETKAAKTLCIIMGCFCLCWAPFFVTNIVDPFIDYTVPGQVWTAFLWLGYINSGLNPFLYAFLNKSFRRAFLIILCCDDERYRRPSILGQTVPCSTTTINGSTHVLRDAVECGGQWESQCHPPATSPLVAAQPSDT

Structure (SMILES)	Ki [1]	Imax [2]	inhibition [3]	inhibition [4]	inhibition [5]	inhibition [6]	inhibition [7]	inhibition [8]	inhibition [9]	inhibition [10]	inhibition [11]	Ki [12]	Ki (Adenosine receptor A1)	Ki (Adenosine receptor A3)	inhibition [13]	inhibition [14]	Ki (Adenosine receptor A2a)	Ki [15]	inhibition [16]
CCNC(=O)[C@H]1O[C@@H](n2cnc3c(N)ncnc32)[C@H](O)[C@@H]1O [NECA]	> 10000 nM	100%	< 50%	< 50%	< 50%	< 50%	< 50%	< 50%	< 50%	< 50%	< 50%	–	–	–	–	–	–	–	–
CCC(CC)Nc1nc(Cl)nc2c1ncn2[C@H]1[C@H](O)[C@H](O)[C@]2(CO)C[C@H]12	> 10000 nM	–	< 50%	< 50%	< 50%	< 50%	< 50%	< 50%	< 50%	< 50%	< 50%	703 nM	112 nM	1200 nM	> 50%	12%	1750 nM	–	–
CNc1nc(Cl)nc2c1ncn2[C@H]1[C@H](O)[C@H](O)[C@]2(CO)C[C@H]12	> 10000 nM	–	< 50%	< 50%	< 50%	< 50%	< 50%	< 50%	< 50%	< 50%	< 50%	–	–	–	> 50%	< 10%	–	2220 nM	–
CC[C@@H](Nc1nc(Cl)nc2c1ncn2[C@H]1[C@H](O)[C@H](O)[C@]2(CO)C[C@H]12)C1CC1	> 10000 nM	–	< 50%	< 50%	< 50%	< 50%	< 50%	< 50%	< 50%	< 50%	< 50%	371 nM	76 nM	–	> 50%	< 10%	1880 nM	–	–
CC[C@H](Nc1nc(Cl)nc2c1ncn2[C@H]1[C@H](O)[C@H](O)[C@]2(CO)C[C@H]12)C1CC1	> 10000 nM	–	< 50%	< 50%	< 50%	< 50%	< 50%	< 50%	< 50%	< 50%	< 50%	251 nM	117 nM	–	> 50%	< 10%	2950 nM	–	–
OC[C@@]12C[C@@H]1[C@@H](n1cnc3c(N[C@H](C4CCC4)C4CC4)nc(Cl)nc31)[C@H](O)[C@@H]2O	> 10000 nM	–	< 50%	< 50%	< 50%	< 50%	< 50%	< 50%	< 50%	< 50%	< 50%	298 nM	298 nM	–	> 50%	< 10%	2690 nM	–	–
Nc1ncnc2c1ncn2[C@@H]1O[C@H](C(=O)NC2CC2)[C@@H](O)[C@H]1O	> 10000 nM	–	< 50%	< 50%	< 50%	< 50%	< 50%	< 50%	< 50%	< 50%	< 50%	–	–	–	< 10%	< 10%	–	1400 nM	< 10%
OC[C@@]12C[C@@H]1[C@@H](n1cnc3c(N[C@@H](C4CCC4)C4CC4)nc(Cl)nc31)[C@H](O)[C@@H]2O	> 10000 nM	–	< 50%	< 50%	< 50%	< 50%	< 50%	< 50%	< 50%	< 50%	< 50%	270 nM	144 nM	–	> 50%	< 10%	3940 nM	–	–
